Source: patent publication US20230101236A1, “COSMETIC COMPOSITION” (GIVAUDAN SA, priority 2020, published 2023)

Tested on: skin microbiome
Experiment: Conversion of crocin to crocetin by the skin microbiome (in vitro)
Assay type: in vitro ADME
Experimental: Sampling of skin microbiome was performed on 7 volunteers with a sterile gauze impregnated with NaCl in 5 areas: forehead, cheek, nose, neck, forearm. All samples were combined to obtain a representative skin microbiota composition. The thus obtained microbiome was cultured in liquid medium (buffered HT medium) at 30° C. in the presence of crocin. Supernatants were collected regularly and analyzed by HPLC-MS to detect crocin and crocetin.

concentration, % of maximum concentration detected (skin microbiome culture with crocin, 42 h) [%]	concentration, % of maximum concentration detected (skin microbiome culture with crocin, 66 h) [%]	concentration, % of maximum concentration detected (skin microbiome culture with crocin, 90 h) [%]	concentration, % of maximum concentration detected (skin microbiome culture with crocin, 162 h) [%]	concentration, % of maximum concentration detected (skin microbiome culture with crocin, 186 h) [%]	concentration, % of maximum concentration detected (skin microbiome culture with crocin, 210 h) [%]	time for complete transformation to crocetin (human) [h]	concentration, % of maximum concentration detected (human, 0 h) [%]	concentration, % of maximum concentration detected (human, 18 h) [%]	concentration, % of maximum concentration detected (human, 42 h) [%]	concentration, % of maximum concentration detected (human, 66 h) [%]	concentration, % of maximum concentration detected (human, 90 h) [%]	SMILES
0.7	7.9	30.5	65.3	101.3	101.3	–	–	–	–	–	–	CC(/C=C/C=C(\C)C(=O)O)=C\C=C\C=C(C)\C=C\C=C(/C)C(=O)O [Crocetin]
–	–	–	–	–	–	≤ 210	100	100	47.5	2.9	0.1	CC(/C=C/C=C(\C)C(=O)O[C@@H]1O[C@H](CO[C@@H]2O[C@H](CO)[C@@H](O)[C@H](O)[C@H]2O)[C@@H](O)[C@H](O)[C@H]1O)=C\C=C\C=C(C)\C=C\C=C(/C)C(=O)O[C@@H]1O[C@H](CO[C@@H]2O[C@H](CO)[C@@H](O)[C@H](O)[C@H]2O)[C@@H](O)[C@H](O)[C@H]1O [Crocin]
